How the values were obtained:
[1] = molecular target: T1, cellular 11β-HSD1 (Rattus norvegicus, UniProt P16232); assay: inhibition of cellular 11β-HSD1 activity in primary rat hepatocytes; type: cell-based; conditions: 2 h incubation
T1 construct: Enzyme activity is measured in the medium of primary cultures of rat hepatocytes 48 h after plating the cells; endogenous in cells; host or cells: primary hepatocytes of male Sprague-Dawley rats
Experimental: The inhibition of cellular 11β-HSD1 activity in primary rat hepatocytes is determined as follows:
Male Sprague-Dawley rats weighing 180-200 g are anesthetized with sodium pentobarbital (65 mg/kg). The liver is perfused in situ with calcium-free Earl's Balanced Salt Solution (EBSS) followed by EBSS containing 100-150 U/mL of collagenase, 1.8 mM CaCl2 and 10 mM HEPES, pH 7.4. The perfused liver is removed and aseptically placed in warm William's Medium E containing 10% BCS. After decapsulation, the organ is transferred to fresh medium and gently shaken to facilitate tissue dissociation and cell release. Hepatocytes are separated from nonparenchymal and dead cells by repeated low speed centrifugation. Cell viability is determined by trypan blue exclusion.
Hepatocytes are plated on collagen coated dishes at a density of 1×10^5 cells/cm^2 in William's medium E containing 10% BCS, 100 U/mL penicillin, 100 μg/mL streptomycin, 0.25 μg/mL amphotericin B, 2 mM L-glutamine, 10 mM HEPES, 100 nM insulin and 1 nM dexamethasone. After 1 h the medium is changed to serum-free William's medium E supplemented as described above. Thereafter, the medium is replaced every 24 h. The cultures are maintained in a humidified atmosphere of 5% CO2 at 37° C.
Enzyme activity is measured in the medium of primary cultures of rat hepatocytes 48 h after plating the cells. The medium is aspirated and replaced with serum-free William's medium E containing 2 nM [^3H]11-dehydrocorticosterone and a test compound and is incubated for 2 h. An aliquot of culture medium is removed at the end of the incubation and the mixture is extracted with 2 volumes of ethyl acetate, dried under vacuum and resuspended in methanol. The dissolved residues are quantitatively transferred to thin layer plates and developed in chloroform-methanol (90:10). The TLC plates are scanned on a Bioscan imaging detector and the fractional conversion of 11-dehydrocorticosterone to corticosterone is calculated. The cell layer is rinsed with cold phosphate-buffered saline and dissolved in 0.1 N NaOH/5% SDS for the determination of cellular protein (BCA, Pierce, Rockford, Ill.). Enzyme activity is expressed as pmoles of product formed per mg protein per hour.

[2] = system: corticosterone production in adrenalectomized (ADX) mice; assay: inhibition of corticosterone production in adrenalectomized (ADX) mice; type: in vivo; conditions: Mus musculus, po; ADX CD1 mice, orally 25 mg/kg each at 2 and 4 h before sacrifice; liver corticosterone
Experimental: Inhibition of corticosterone production in adrenalectomized (ADX) mice is determined as follows:
Bilateral adrenalectomy is performed in male mice of the CD1 strain (6 to 8 weeks of age, 25-30 g body weight) through a lumbar laparotomy. After 10 days the animals are fasted for 24 h. Compounds are administered orally at 25 mg/kg each at 2 and 4 h before sacrifice. A second group of animals receives carbenoxolone at the same dose, and a third group receives the vehicle (cornstarch). Homogenized liver samples are used to measure corticosterone concentration which is determined by radioimmunoassay and is expressed as pg of corticosterone per mg of liver protein.

[3] = molecular target: T2, human 11β-HSD2 (Homo sapiens, UniProt P80365); assay: in vitro inhibition of human 11β-HSD2 (SW-620 cell lysates, [3H]cortisol to [3H]cortisone); type: biochemical
T2 construct: using lysates of SW-620 cells as the enzyme source; host or cells: SW-620 human colon carcinoma cells (lysate)
T2 sequence (P80365 1-405): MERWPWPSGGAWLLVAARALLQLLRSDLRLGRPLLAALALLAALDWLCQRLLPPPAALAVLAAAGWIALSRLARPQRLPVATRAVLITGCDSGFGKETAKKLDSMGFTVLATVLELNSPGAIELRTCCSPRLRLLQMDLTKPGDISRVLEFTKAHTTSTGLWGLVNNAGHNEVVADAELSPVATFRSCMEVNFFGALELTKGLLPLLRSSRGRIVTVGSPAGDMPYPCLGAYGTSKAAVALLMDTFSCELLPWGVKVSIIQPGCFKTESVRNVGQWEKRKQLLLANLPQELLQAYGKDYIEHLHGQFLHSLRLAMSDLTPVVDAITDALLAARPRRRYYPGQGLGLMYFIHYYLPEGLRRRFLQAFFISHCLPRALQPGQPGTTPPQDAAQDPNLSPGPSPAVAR
Experimental: The in vitro inhibition of human 11β-HSD2 is determined as follows:
The SW-620 human colon carcinoma cell line is obtained from the American Type Culture Collection (ATCC). Cells are plated at a density of 8-10×10^4 cells/cm^2 in DMEM/F12 containing 5% BCS, 100 U/mL penicillin, 100 μg/mL streptomycin and […] amphotericin B. Cultures are grown to 80-90% confluence in a humidified, atmosphere of 5% CO2 at 37° C. The medium is changed to serum-free, phenol red-free DMEM/F12 at 24 h before harvesting the cells.
After 24 h in serum-free medium, cultured SW-620 cells are rinsed and scraped in Kreb's-Ringer buffer, pH 7.4, containing 1 mM EDTA, 2 μg/mL aprotinin, 10 μM leupeptin and 1 μM pepstatin. After sonication (30 seconds) and low speed centrifugation (2,000 rpm, 5 min) to remove cellular debris, the supernatant is collected and used to determine enzyme activity and protein concentration (BCA, Pierce, Rockford, Ill.).
Dehydrogenase activity is quantified by measuring the conversion of [^3H]cortisol to [^3H]cortisone using lysates of SW-620 cells as the enzyme source. The assay is performed in tubes containing Kreb's-Ringer buffer pH 7.4, with 0.20 mM NAD and 200,000 dpm of [^3H]cortisol and a test compound in a total volume of 1 mL. The tubes are preincubated for 10 min at 37° C. before adding 200 μg of cell lysates to start the reaction. After incubation for 1 h at 37° C. in a shaking water bath, the mixture is extracted with 2 volumes of ethyl acetate and centrifuged for 10 min at 2,000 rpm. The organic layer is collected, dried under vacuum and resuspended in methanol. The dissolved residues are quantitatively transferred to thin layer plates and developed in chloroform-methanol (90:10). Unlabeled cortisol and cortisone were used as reference markers. The TLC plates are scanned on a Bioscan radioimaging detector (Bioscan, Washington, D.C.), and the fractional conversion of cortisol to cortisone is calculated. Enzyme activity is expressed as pmoles of product formed per mg protein per hour. Carbenoxolone and glycyrrhetinic acid are used as standards.

[4] = molecular target: T3, human recombinant 11β-HSD1 (Homo sapiens, UniProt P28845); assay: in vitro inhibition of human recombinant 11β-HSD1 (Pichia pastoris microsomes, [3H]cortisone to [3H]cortisol); type: biochemical; conditions: recombinant human 11β-HSD1 microsomes, 500 nM cortisone mixture, NADPH, 90 min at 37° C.
T3 construct: made in house; host or cells: Pichia pastoris (microsomal fraction)
T3 sequence (P28845 whole entry): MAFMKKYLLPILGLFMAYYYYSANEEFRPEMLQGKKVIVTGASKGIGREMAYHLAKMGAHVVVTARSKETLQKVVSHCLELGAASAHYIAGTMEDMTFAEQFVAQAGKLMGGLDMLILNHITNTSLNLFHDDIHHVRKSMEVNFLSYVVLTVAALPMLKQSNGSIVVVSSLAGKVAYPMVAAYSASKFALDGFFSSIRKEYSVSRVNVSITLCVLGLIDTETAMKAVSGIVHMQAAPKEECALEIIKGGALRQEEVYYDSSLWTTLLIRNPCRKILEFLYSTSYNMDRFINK
Experimental: The in vitro inhibition of human recombinant 11β-HSD1 is determined as follows:
Recombinant human 11β-HSD1 is expressed in yeast Pichia pastoris. Cultures are grown at 30° C. for 3 days in the presence of methanol to induce enzyme expression. The microsomal fraction overexpressing 11β-HSD1 is prepared from the cell homogenate and used as the enzyme source for primary screening. A test compound at the desired concentration is preincubated for 10 min at RT with 3 μg of the microsomal protein in 50 mM sodium phosphate, pH 7.5, in a total volume of 80 μL. The enzyme reaction is initiated by adding 20 μL of a mixture containing 5 mM NADPH, 500 nM cortisone, and 80,000 dpm of [^3H]cortisone in the same buffer and is terminated by ethyl acetate after incubation for 90 min at 37° C. The production of [^3H]cortisol is quantitated upon separation from [^3H]cortisone by a C18 column on HPLC equipped with a radioactivity detector. Glycerrhetinic acid, a known inhibitor of 11β-HSD1, is used as a standard.

T1 sequence (P16232 whole entry): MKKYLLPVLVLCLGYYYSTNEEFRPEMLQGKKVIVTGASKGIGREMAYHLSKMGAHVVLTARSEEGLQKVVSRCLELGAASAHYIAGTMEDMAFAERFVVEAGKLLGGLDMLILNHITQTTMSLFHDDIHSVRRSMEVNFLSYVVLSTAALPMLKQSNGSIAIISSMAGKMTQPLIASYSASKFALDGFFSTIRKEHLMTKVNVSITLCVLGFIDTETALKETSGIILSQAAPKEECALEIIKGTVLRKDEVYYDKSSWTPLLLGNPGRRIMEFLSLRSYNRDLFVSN

- inhibition at 1 µM [1]: 75%
- inhibition at 10 µM [3]: 29%
- IC50 [4]: 770 nM
SMILES: COC(=O)Nc1ccc(C(=O)N2CC[C@H]3CCCC[C@H]3C2)c(OC)c1 [Example 48-37]
- change in vivo at 25 mg/kg [2]: -69%
